From patent publication US20250099448A1, “HETEROCYCLIC COMPOUNDS” (Hoffmann-La Roche Inc., priority 2022, published 2025) come the findings set out here.

For this experiment, the target named is T1, MAGL protein (Homo sapiens, UniProt Q99685).
T1 sequence (Q99685 1-303): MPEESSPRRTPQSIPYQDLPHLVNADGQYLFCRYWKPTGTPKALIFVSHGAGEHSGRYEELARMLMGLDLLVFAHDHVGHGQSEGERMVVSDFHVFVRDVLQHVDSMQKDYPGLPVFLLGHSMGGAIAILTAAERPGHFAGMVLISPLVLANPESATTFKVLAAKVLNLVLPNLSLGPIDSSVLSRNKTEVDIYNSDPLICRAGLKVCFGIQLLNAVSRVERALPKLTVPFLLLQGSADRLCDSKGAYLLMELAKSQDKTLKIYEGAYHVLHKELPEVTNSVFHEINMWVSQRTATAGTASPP
Kind of experiment: 2-AG assay: MAGL inhibitory activity by hydrolysis of 2-arachidonoylglycerol to arachidonic acid, followed by mass spectrometry. The experiment is classed as biochemical. The following applies: 8 μM 2-arachidonoylglycerol, 15 min preincubation, 30 min reaction at RT, RapidFire MS readout. In a few lines:
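MAGL was preincubated 15 min at RT with compound (12.5 to […], 3-fold steps) in 50 mM TRIS, 1 mM EDTA, 0.01% Tween-20, 2.5% DMSO. The reaction ran 30 min at RT with 8 μM 2-AG. Arachidonic acid was quantified by RapidFire SPE-MS/MS against a d8-arachidonic acid internal standard.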
In general, IC50 refers to the concentration that inhibits the measured activity by half. Read a low IC50 as greater potency in that assay. Turning to `O=C(N1CC2(CCC(Cc3ccc(Cl)cn3)CC2)C1)N1CC2(CC(c3nnc(C4(O)CC4)[nH]3)C2)C1` [compound 139], 3.87 nM corresponded to half-maximal inhibition (IC50).

In turn, `O=C(N1CC2(CCC(Cc3ccc(C(F)(F)F)nc3)CC2)C1)N1CC2(CC(c3nnc(C4CC4)[nH]3)C2)C1` [compound 140] registered an IC50 of 0.31 nM.

`O=C(N1CC2(CCC(Cc3ccc(C(F)(F)F)nc3)CC2)C1)N1CC2(CC(c3nnc(C4(O)CC4)[nH]3)C2)C1` [compound 141] gave an IC50 of 10.6 nM.

`O=C(N1CC2(CCC(Cc3ncc(F)cc3F)CC2)C1)N1CC2(CC(c3nnc(C4CC4)[nH]3)C2)C1` [compound 142] showed an IC50 of 0.84 nM.

`O=C(N1CC2(CCC(Cc3ncc(F)cc3F)CC2)C1)N1CC2(CC(c3nnc(C4(O)CC4)[nH]3)C2)C1` [compound 143] registered an IC50 of 14.5 nM.

`O=C(N1CC2(CCC(Cc3ccc(F)cn3)CC2)C1)N1CC2(CC(c3nnc(C4CC4)[nH]3)C2)C1` [compound 144]: inhibition was half-maximal at 0.63 nM (IC50).

Consider `O=C(N1CC2(CCC(Cc3ccc(F)cn3)CC2)C1)N1CC2(CC(c3nnc(C4(O)CC4)[nH]3)C2)C1` [compound 145], for which the IC50 is 12.6 nM.

In turn, `O=C(N1CC2(CCC(Cc3ccc(OC(F)F)nc3)CC2)C1)N1CC2(CC(c3nnc(C4(O)CC4)[nH]3)C2)C1` [compound 146] came in with an IC50 of 9.79 nM.

Consider `O=C(N1CC2(CCC(Cc3ncc(F)cc3F)C2)C1)N1CC2(CC(c3nnc(C4CC4)[nH]3)C2)C1` (stereo not drawn) [compound 147], for which it took 0.29 nM to reach half-maximal inhibition (IC50).

`O=C(N1CC2(CCC(Cc3ccc(C(F)(F)F)nc3)C2)C1)N1CC2(CC(c3nnc(C4CC4)[nH]3)C2)C1` (stereo not drawn) [compound 152] yielded an IC50 of 0.43 nM.

In turn, `CS(=O)(=O)c1ccc(CC2CCC3(C2)CN(C(=O)N2CC4(CC(c5nnc(C6CC6)[nH]5)C4)C2)C3)cc1C(F)(F)F` (stereo not drawn) [compound 153] registered an IC50 of 0.27 nM.

Turning to `O=C(N1CC2(CC(c3nnc(C4CC4)[nH]3)C2)C1)N1CC2(CN(Cc3ccc(F)cc3F)C2)C1` [compound 156], inhibition was half-maximal at 4.08 nM (IC50).

In turn, `O=C(N1CC2(CC(c3nnc(C4(O)CC4)[nH]3)C2)C1)N1CC2(CN(Cc3ccc(F)cc3F)C2)C1` [compound 157] showed an IC50 of 15.8 nM.

Regarding `O=C(N1CC2(CC(c3nnc(C4CC4)[nH]3)C2)C1)N1CC2(CN(Cc3cc(F)cc(F)c3)C2)C1` [compound 159], the IC50 amounted to 6.08 nM.

In turn, `O=C(N1CC2(CC(c3nnc(C4CC4)[nH]3)C2)C1)N1CC2(CN(Cc3ccc(C(F)(F)F)nn3)C2)C1` [compound 160] returned an IC50 of 61.3 nM.

As for `O=C(N1CC2(CC(c3nnc(C4CC4)[nH]3)C2)C1)N1CC2(CN(Cc3ncc(C(F)(F)F)cn3)C2)C1` [compound 161], the IC50 is 78.8 nM.

`O=C(N1CC2(CC(c3nnc(C4CC4)[nH]3)C2)C1)N1CC2(CN(Cc3cnc(C(F)(F)F)nc3)C2)C1` [compound 162] registered an IC50 of 32.7 nM.

Take `O=C(N1CC2(CC(c3nnc(C4CC4)[nH]3)C2)C1)N1CC2(CN(Cc3ccc(C(F)(F)F)cn3)C2)C1` [compound 163]: half-maximal inhibition (IC50) was put at 4.11 nM.

Turning to `O=C(N1CC2(CC(c3nnc(C4CC4)[nH]3)C2)C1)N1CC2(CN(Cc3cnc(C(F)(F)F)cn3)C2)C1` [compound 164], half-maximal inhibition (IC50) was put at 18.3 nM.

The compound `O=C(N1CC2(CC(c3nnc(C4CC4)[nH]3)C2)C1)N1CC2(CN(Cc3ncc(F)cc3F)C2)C1` [compound 165] showed an IC50 of 30.9 nM.

In turn, `O=C(N1CC2(CC(c3nnc(C4CC4)[nH]3)C2)C1)N1CC2(CN(Cc3ccc(F)cc3C(F)(F)F)C2)C1` [compound 169] gave an IC50 of 0.62 nM.

Consider `NS(=O)(=O)c1ccccc1CN1CC2(C1)CN(C(=O)N1CC3(CC(c4nnc(C5CC5)[nH]4)C3)C1)C2` [compound 170], for which the IC50 is 28.1 nM.

For `CNC(=O)c1ccccc1CN1CC2(C1)CN(C(=O)N1CC3(CC(c4nnc(C5CC5)[nH]4)C3)C1)C2` [compound 173], it took 230 nM to reach half-maximal inhibition (IC50).

Compound `COCn1cnc(-c2ccccc2CN2CC3(C2)CN(C(=O)N2CC4(CC(c5nnc(C6CC6)[nH]5)C4)C2)C3)n1` [compound 174] came in with an IC50 of 40.7 nM.

`COCn1ccnc1-c1ccccc1CN1CC2(C1)CN(C(=O)N1CC3(CC(c4nnc(C5CC5)[nH]4)C3)C1)C2` [compound 175] came in with an IC50 of 34.3 nM.

In the case of `O=C(N1CC2(CCN(Cc3ccc(C(F)(F)F)nc3)CC2)C1)N1CC2(CC(c3nnc(C4CC4)[nH]3)C2)C1` [compound 176], 8.71 nM corresponded to half-maximal inhibition (IC50).

For `O=C(N1CC2(CCN(Cc3ccc(C(F)(F)F)cc3F)CC2)C1)N1CC2(CC(c3nnc(C4CC4)[nH]3)C2)C1` [compound 177], the IC50 is 0.38 nM.

Take `O=C(N1CC2(CCN(Cc3ccc(C(F)(F)F)cn3)CC2)C1)N1CC2(CC(c3nnc(C4CC4)[nH]3)C2)C1` [compound 178]: the IC50 was 1.8 nM.

As to `CS(=O)(=O)c1ccc(CN2CCC3(CC2)CN(C(=O)N2CC4(CC(c5nnc(C6CC6)[nH]5)C4)C2)C3)cc1` [compound 179], the midpoint of inhibition, the IC50, lay at 33.6 nM.

With `O=C(N1CC2(CCN(Cc3cccc(S(=O)(=O)C(F)(F)F)c3)CC2)C1)N1CC2(CC(c3nnc(C4CC4)[nH]3)C2)C1` [compound 180], the IC50 was 0.91 nM.

`CS(=O)(=O)c1cccc(CN2CCC3(CC2)CN(C(=O)N2CC4(CC(c5nnc(C6CC6)[nH]5)C4)C2)C3)c1` [compound 181] came in with an IC50 of 36.2 nM.

For the compound `O=C(N1CC2(CC(c3nnc(C4CC4)[nH]3)C2)C1)N1CC2(CCN(Cc3ccc(C(F)(F)F)cn3)C2)C1` [compound 182], the IC50 came to 5.91 nM.

`O=C(N1CC2(CC(c3nnc(C4CC4)[nH]3)C2)C1)N1CC2(CCN(Cc3ccc(C(F)(F)F)nn3)C2)C1` [compound 183] displayed an IC50 of 31.3 nM.

`O=C(N1CC2(CC(c3nnc(C4CC4)[nH]3)C2)C1)N1CC2(CCN(Cc3cnc(C(F)(F)F)cn3)C2)C1` [compound 184] had an IC50 of 11.7 nM.

With `O=C(N1CC2(CC(NCc3ccc(C(F)(F)F)cc3F)C2)C1)N1CC2(CC(c3nnc(C4CC4)[nH]3)C2)C1` [compound 185], the IC50 stood at 1.65 nM.

`O=C(N1CC(NCc2cc(F)ccc2C(F)(F)F)C1)N1CC2(CC(c3nnc(C4CC4)[nH]3)C2)C1` [compound 187]: the IC50 is 70.5 nM.

Regarding `O=C(N1CC(NCc2cc(C(F)(F)F)ccc2Cl)C1)N1CC2(CC(c3nnc(C4CC4)[nH]3)C2)C1` [compound 188], the IC50 stood at 20.7 nM.

`O=C(N1CC(NCc2ccc(OC(F)(F)F)cc2F)C1)N1CC2(CC(c3nnc(C4CC4)[nH]3)C2)C1` [compound 189] had a half-inhibitory concentration (IC50) of 38.6 nM.

On to `O=C(N1CC(NCc2ccc(C(F)(F)F)cc2Cl)C1)N1CC2(CC(c3nnc(C4CC4)[nH]3)C2)C1` [compound 190], for which it took 12.6 nM to reach half-maximal inhibition (IC50).

The compound `O=C(N1CC(NCc2ccc(OC(F)(F)F)cc2)C1)N1CC2(CC(c3nnc(C4CC4)[nH]3)C2)C1` [compound 191] returned an IC50 of 45.6 nM.

`O=C(N1CC(NCc2ccc(C(F)(F)F)cc2F)C1)N1CC2(CC(c3nnc(C4CC4)[nH]3)C2)C1` [compound 192] displayed an IC50 of 23.2 nM.

Take `O=C(N1CC(NCc2ccc(C(F)(F)F)c(F)c2)C1)N1CC2(CC(c3nnc(C4CC4)[nH]3)C2)C1` [compound 193]: the IC50 was found to be 45.5 nM.

Compound `O=C(N1CC(NCc2cc(Cl)cc(C(F)(F)F)c2)C1)N1CC2(CC(c3nnc(C4CC4)[nH]3)C2)C1` [compound 194] registered an IC50 of 18.4 nM.

`O=C(N1CC(NCc2cc(C(F)(F)F)ccc2F)C1)N1CC2(CC(c3nnc(C4CC4)[nH]3)C2)C1` [compound 195] gave an IC50 of 130 nM.

`O=C(N1CC(NCc2ccc(F)cc2C(F)(F)F)C1)N1CC2(CC(c3nnc(C4CC4)[nH]3)C2)C1` [compound 196] yielded an IC50 of 111 nM.

`COc1cc(C(F)(F)F)ccc1CNC1CN(C(=O)N2CC3(CC(c4nnc(C5CC5)[nH]4)C3)C2)C1` [compound 197] registered an IC50 of 15.6 nM.

The compound `O=C(N1CC(NCc2ccc(C(F)(F)F)cc2F)C1)N1CC2(CC(c3nnc(C4(O)CC4)[nH]3)C2)C1` [compound 198] returned an IC50 of 177 nM.

Consider `O=C(N1CC(NCc2cc(Cl)ccc2C(F)(F)F)C1)N1CC2(CC(c3nnc(C4CC4)[nH]3)C2)C1` [compound 199], for which the IC50 was determined as 31.9 nM.

`O=C(N1CC(N(Cc2ccc(C(F)(F)F)cc2F)C2CC2)C1)N1CC2(CC(c3nnc(C4CC4)[nH]3)C2)C1` [compound 200] showed an IC50 of 69.7 nM.

Regarding `O=C(N1CC(N(Cc2ccc(C(F)(F)F)cc2F)CC2CC2)C1)N1CC2(CC(c3nnc(C4CC4)[nH]3)C2)C1` [compound 201], the IC50 was determined as 17 nM.

In turn, `O=C(N1CC(NS(=O)(=O)c2cccc(C(F)(F)F)c2)C1)N1CC2(CC(c3nnc(C4CC4)[nH]3)C2)C1` [compound 202] showed an IC50 of 332 nM.

With `O=C(N1CC(NS(=O)(=O)c2ccc(C(F)(F)F)cc2F)C1)N1CC2(CC(c3nnc(C4CC4)[nH]3)C2)C1` [compound 203], the IC50 amounted to 363 nM.

In the case of `O=C(N1CC(NS(=O)(=O)C2CCC(F)(F)CC2)C1)N1CC2(CC(c3nnc(C4CC4)[nH]3)C2)C1` [compound 204], inhibition was half-maximal at 1360 nM (IC50).

With `O=C(N1CC(NS(=O)(=O)c2cccc(OC(F)(F)F)c2)C1)N1CC2(CC(c3nnc(C4CC4)[nH]3)C2)C1` [compound 205], the IC50 came to 155 nM.

The compound `O=C(N1CC(NCc2ccc(C(F)(F)F)cc2F)C1)N1CC2(CC(c3nnc(C4CCC4)[nH]3)C2)C1` [compound 206] displayed an IC50 of 232 nM.

The compound `O=C(N1CC(n2cc(OCC(F)(F)F)cn2)C1)N1CC2(CC(c3nnc(C4CC4)[nH]3)C2)C1` [compound 207] displayed a half-maximal inhibitory concentration (IC50) of 60.3 nM.

As for `O=C(N1CC(CNS(=O)(=O)c2cccc(C(F)(F)F)c2)C1)N1CC2(CC(c3nnc(C4CC4)[nH]3)C2)C1` [compound 208], inhibition was half-maximal at 21.6 nM (IC50).
